Measured values reported in patent US5834429A, “Small peptides which inhibit binding to T-4 receptors and act as immunogens” (priority 1993, dated 1998).

Legend:
HTLV-III virus (HIV) = test: Blockade of viral infection of human T cells (reverse transcriptase activity); type: cell-based; conditions: FIG. 3; for rank order of potencies in inhibiting viral infectivity: four peptides
Method: Separation of T-Lymphocyte Subsets. Subsets of T cells were obtained by treatment of PERCOLL density-purified peripheral blood T cells with specific monoclonal antibodies (T4 or T8) at 10 μg/ml. The treated cells were then panned (21) on a plastic Petri dish that was coated with goat [F(ab')2 ] anti-mouse immunoglobulin (Sero Lab, Eastbury, Mass.) for 30 min at 4° C. The nonadherent cells were then removed, washed, and analyzed for reactivity by flow cytometry. The separated T4 and T8 cell populations have <5% contamination of other T-cell subsets. Cells were then cultured with phytohemagglutinin (1 μg/ml) for 72 hr and exposed to HIV as described below. Infected cells were phenotypically characterized when cytotoxicity assays were performed.
Virus Infection. The HTLV-III virus used for infection was isolated from an interleukin 2 (IL-2)-dependent cultured T-cell line established from fresh AIDS patient material and passaged into HuT 78, a permissive IL-2-independent cell line.

[1] = test system: T4 antigen (gp120 receptor) on fresh rat hippocampal membranes; test: Displacement of specific 125I-gp120 binding to brain membranes; conditions: for potency compared with peptide T (in words): FIG. 3; for rank order of potencies in inhibiting receptor binding: four peptides
Method: HTLV-IIIb isolate of HIV was propaged in H9 cells, and the gp120 was isolated by immunoaffinity chromatography and preparative NaDodSO4 /PAGE. Purified gp120 was labeled with ^125 I by the chloramine-T method.
Fresh human, monkey, and rat hippocampus were quickly homogenized (POLYTRON, Brinkmann Instruments) in 100 vol of ice-cold 50 mM Hepes (pH 7.4). The membranes collected by centrifugation (15,000×g) were washed in the original buffer volume and were used fresh or stored at -70° C. Before use, brain membranes and highly purified T cells (ref. 16; gift of Larry Wahl) were preincubated for 15-30 min in phosphate-buffered saline (PBS). Membranes derived from 2 mg (initial wet weight) of brain (.chi.100 μg of protein) were incubated with 28,000 cpm of ^125 I-gp120 for 1 hr at 37° C. in 200 μl (final volume) of 50 mM Hepes containing 0.1% bovine serum albumin and the peptidase inhibitors bacitracin (0.005%), aprotinin (0.005%), leupeptin (0.001%), and chymostatin (0.001%). Incubations were rapidly vacuum-filtered and counted to determine the receptor-bound material.

T4 viral receptors = T4 viral receptors (Homo sapiens, UniProt P01730); test: Activity of cysteine-extended core peptide (test not specified)

Row | Compound | rank order of potencies in inhibiting viral infectivity (HTLV-III virus (HIV)) | potency compared with peptide T (in words) [1] | rank order of potencies in inhibiting receptor binding [1] | inhibition of gp120 binding to brain membranes (in words) [1] | activity (in words) (T4 viral receptors) | blockade of viral infectivity (in words) (HTLV-III virus (HIV); human T cells) | concentration range at which 125I-gp120 binding is significantly inhibited ([1]; fresh rat hippocampal membranes, FIG. 2C) [nM]
1 | C[C@@H](N)C(=O)N[C@@H](CO)C(=O)N[C@H](C(=O)N[C@H](C(=O)N[C@H](C(=O)N[C@@H](CC(N)=O)C(=O)N[C@@H](Cc1ccc(O)cc1)C(=O)N[C@H](C(N)=O)[C@@H](C)O)[C@@H](C)O)[C@@H](C)O)[C@@H](C)O [D-[Ala]1-peptide T-amide] | D-[Ala]1 -peptide T-amide>D-[Ala]1 -peptide T>peptide T>D-[Thr]8 -peptide T-amide | somewhat greater potency | D-[Ala]1 -peptide T-amide>D-[Ala]1 -peptide T>peptide T>D-[Thr]8 -peptide T-amide |  |  |  | 
2 | substance P [1-8]: irrelevant octapeptide substance P [1-8] (RPKPQQFF; Substance P; UniProt P20366 58-65, looked up, fragment) [reference compound] |  |  |  | not |  |  | 
3 | CYS-THR-THR-ASN-TYR-THR-CYS (CTTNYTC; printed: CYS-THR-THR-ASN-TYR-THR-CYS) |  |  |  |  | active |  | 
4 | C[C@H](N)C(=O)N[C@@H](CO)C(=O)N[C@H](C(=O)N[C@H](C(=O)N[C@H](C(=O)N[C@@H](CC(N)=O)C(=O)N[C@@H](Cc1ccc(O)cc1)C(=O)N[C@H](C(=O)O)[C@@H](C)O)[C@@H](C)O)[C@@H](C)O)[C@@H](C)O [peptide T] | D-[Ala]1 -peptide T-amide>D-[Ala]1 -peptide T>peptide T>D-[Thr]8 -peptide T-amide |  | D-[Ala]1 -peptide T-amide>D-[Ala]1 -peptide T>peptide T>D-[Thr]8 -peptide T-amide | inhibit binding of gp 120 to the brain membranes |  | blocked | ~0.1
5 | C[C@@H](N)C(=O)N[C@@H](CO)C(=O)N[C@H](C(=O)N[C@H](C(=O)N[C@H](C(=O)N[C@@H](CC(N)=O)C(=O)N[C@@H](Cc1ccc(O)cc1)C(=O)N[C@H](C(=O)O)[C@@H](C)O)[C@@H](C)O)[C@@H](C)O)[C@@H](C)O [D-[Ala]1-peptide T] | D-[Ala]1 -peptide T-amide>D-[Ala]1 -peptide T>peptide T>D-[Thr]8 -peptide T-amide | consistently more potent | D-[Ala]1 -peptide T-amide>D-[Ala]1 -peptide T>peptide T>D-[Thr]8 -peptide T-amide |  |  |  | 
